Data set [1] relates to bicistronic HCV replicon (replicon RNA, GenBank Accession No. AJ242654). In words: HCV Replicon Assay. In kind it is cell-based. The note with it: Hepatitis C virus, 72 h, read-out: Replicon IC50. On the technique in general: A replicon is a self-replicating genome or part of one, used to study replication in cells.

Structures are written as SMILES.

What is called melting point is the temperature, or range, at which the solid turns liquid. One may read the IC50 as the concentration at which inhibition is half-maximal.

Consider `C[C@H](NS(=O)(=O)c1cnc(-c2c(C#N)c3cc(F)ccc3n2C2CCC2)nc1)C(F)(F)F` [compound 451, 2-(3-cyano-1-cyclobutyl-5-fluoro-1H-indol-2-yl)-N-[(2S)-1,1,1-trifluoropropan-2-yl]pyrimidine-5-sulfonamide], for which the melting point was in the range of 198 to 203 °C. The 50% inhibitory concentration (IC50) in data set [1] is < 500 nM.
`N#Cc1c(-c2ncc(S(=O)(=O)NC(CF)CF)cn2)n(C2CCC2)c2ccc(F)cc12` [compound 452, 2-(3-cyano-1-cyclobutyl-5-fluoro-1H-indol-2-yl)-N-(1,3-difluoropropan-2-yl)pyrimidine-5-sulfonamide] yielded a melting point of 175 to 180 °C. In addition, in data set [1], the IC50 was < 500 nM.
`COc1ccc2c(c1)c(C#N)c(-c1ccc(S(=O)(=O)N[C@@H](C)C(F)(F)F)cn1)n2C1CCC1` [compound 453, 6-(3-cyano-1-cyclobutyl-5-methoxy-1H-indol-2-yl)-N-[(2S)-1,1,1-trifluoropropan-2-yl]pyridine-3-sulfonamide]: the melting point was 181 to 183 °C. For the same molecule, the IC50 in data set [1] is < 500 nM.
`C[C@H](NS(=O)(=O)c1cnc(-c2c(C#N)c3cc(Cl)ccc3n2C2CCC2)nc1)C(F)(F)F` [compound 454, 2-(5-chloro-3-cyano-1-cyclobutyl-1H-indol-2-yl)-N-[(2S)-1,1,1-trifluoropropan-2-yl]pyrimidine-5-sulfonamide]: the melting point was in the range of 232 to 234 °C. The IC50 in data set [1] was < 500 nM.
Regarding `CC(C)c1ccc2c(C#N)c(-c3ncc(S(=O)(=O)N[C@@H](C)C(F)(F)F)cn3)n(C3CCC3)c2c1` [compound 455, 2-[3-cyano-1-cyclobutyl-6-(propan-2-yl)-1H-indol-2-yl]-N-[(2S)-1,1,1-trifluoropropan-2-yl]pyrimidine-5-sulfonamide], the melting point is 217 to 222 °C. Further, in data set [1], the IC50 is < 500 nM.
The molecule `CC(C)c1ccc2c(C#N)c(-c3ccc(S(=O)(=O)NC(CF)CF)cn3)n(C(C)C)c2c1` [compound 456, 6-[3-cyano-1,6-di(propan-2-yl)-1H-indol-2-yl]-N-(1,3-difluoropropan-2-yl)pyridine-3-sulfonamide] yielded a melting point of 165 to 173 °C. Besides, in data set [1], the IC50 was < 500 nM.
Molecule `CC(C)c1ccc2c(C#N)c(-c3ccc(S(=O)(=O)NC(CF)CF)cn3)n(C3CCCC3)c2c1` [compound 457, 6-[3-cyano-1-cyclopentyl-6-(propan-2-yl)-1H-indol-2-yl]-N-(1,3-difluoropropan-2-yl)pyridine-3-sulfonamide] yielded a melting point of 163 to 172 °C. The IC50 in data set [1] was < 500 nM.
Molecule `Cc1ccc2c(c1)c(C#N)c(-c1ccc(S(=O)(=O)N[C@H](C)C(F)(F)F)cn1)n2CC1CC1` [compound 458, 6-[3-cyano-1-(cyclopropylmethyl)-5-methyl-1H-indol-2-yl]-N-[(2R)-1,1,1-trifluoropropan-2-yl]pyridine-3-sulfonamide] yielded a melting point of 166 to 172 °C. Moreover, the IC50 in data set [1] is < 500 nM.
In the same order, the values of `CC(C)c1ccc2c(C#N)c(-c3ccc(S(=O)(=O)NC(CF)CF)cn3)n(CC3CC3)c2c1` [compound 460, 6-[3-cyano-1-(cyclopropylmethyl)-6-(propan-2-yl)-1H-indol-2-yl]-N-(1,3-difluoropropan-2-yl)pyridine-3-sulfonamide] are 132 to 134 °C and < 500 nM.
Consider `C[C@@H](NS(=O)(=O)c1ccc(-c2c(C#N)c3cc(Cl)ccc3n2C2CCCCC2)nc1)C(F)(F)F` [compound 461, 6-(5-chloro-3-cyano-1-cyclohexyl-1H-indol-2-yl)-N-[(2R)-1,1,1-trifluoropropan-2-yl]pyridine-3-sulfonamide], for which the melting point lay in the range of 226 to 227 °C. Further, in data set [1], the IC50 was < 500 nM.
In the same order, the values of `C[C@H](NS(=O)(=O)c1ccc(-c2c(C#N)c3cc(Cl)ccc3n2C2CCCCC2)nc1)C(F)(F)F` [compound 462, 6-(5-chloro-3-cyano-1-cyclohexyl-1H-indol-2-yl)-N-[(2S)-1,1,1-trifluoropropan-2-yl]pyridine-3-sulfonamide] are 220 to 222 °C and < 500 nM.
Molecule `N#Cc1c(-c2ncc(S(=O)(=O)NC(CF)CF)cn2)n(C2CCCCC2)c2ccc(Cl)cc12` [compound 463, 2-(5-chloro-3-cyano-1-cyclohexyl-1H-indol-2-yl)-N-(1,3-difluoropropan-2-yl)pyrimidine-5-sulfonamide] returned a melting point of 251 to 253 °C. Besides, the IC50 in data set [1] was < 500 nM.
The corresponding values for `C[C@H](NS(=O)(=O)c1cnc(-c2c(C#N)c3cc(Cl)ccc3n2C2CCCCC2)nc1)C(F)(F)F` [compound 464, 2-(5-chloro-3-cyano-1-cyclohexyl-1H-indol-2-yl)-N-[(2S)-1,1,1-trifluoropropan-2-yl]pyrimidine-5-sulfonamide] are 253 to 255 °C and 500 to 2000 nM.
The molecule `N#Cc1ccc2c(C#N)c(-c3ccc(S(=O)(=O)NC(CF)CF)cn3)n(C3CCC3)c2c1` [compound 465, 6-(3,6-dicyano-1-cyclobutyl-1H-indol-2-yl)-N-(1,3-difluoropropan-2-yl)pyridine-3-sulfonamide] returned a melting point of 203 to 204 °C. Moreover, the IC50 in data set [1] is < 500 nM.
The corresponding values for `N#Cc1ccc2c(C#N)c(-c3ncc(S(=O)(=O)NC(CF)CF)cn3)n(C3CCC3)c2c1` [compound 466, 2-(3,6-dicyano-1-cyclobutyl-1H-indol-2-yl)-N-(1,3-difluoropropan-2-yl)pyrimidine-5-sulfonamide] are 240 to 241 °C and < 500 nM.
In the same order, the values of `C[C@H](NS(=O)(=O)c1ccc(-c2c(C#N)c3ccc(C#N)cc3n2C2CCC2)nc1)C(F)(F)F` [compound 467, 6-(3,6-dicyano-1-cyclobutyl-1H-indol-2-yl)-N-[(2S)-1,1,1-trifluoropropan-2-yl]pyridine-3-sulfonamide] are 223 to 225 °C and < 500 nM.
Turning to `N#Cc1ccc2c(C#N)c(-c3ccc(S(=O)(=O)NC(CF)CF)cn3)n(C3CCCC3)c2c1` [compound 468, 6-(3,6-dicyano-1-cyclopentyl-1H-indol-2-yl)-N-(1,3-difluoropropan-2-yl)pyridine-3-sulfonamide], the melting point is 219 to 221 °C. For the same molecule, in data set [1], the IC50 was < 500 nM.
In the same order, the values of `N#Cc1ccc2c(C#N)c(-c3ncc(S(=O)(=O)NC(CF)CF)cn3)n(C3CCCC3)c2c1` [compound 469, 2-(3,6-dicyano-1-cyclopentyl-1H-indol-2-yl)-N-(1,3-difluoropropan-2-yl)pyrimidine-5-sulfonamide] are 246 to 247 °C and 500 to 2000 nM.
Molecule `C[C@H](NS(=O)(=O)c1ccc(-c2c(C#N)c3ccc(C#N)cc3n2C2CCCC2)nc1)C(F)(F)F` [compound 470, 6-(3,6-dicyano-1-cyclopentyl-1H-indol-2-yl)-N-[(2S)-1,1,1-trifluoropropan-2-yl]pyridine-3-sulfonamide] showed a melting point of 203 to 205 °C. In addition, the IC50 in data set [1] was < 500 nM.
`C[C@H](NS(=O)(=O)c1cnc(-c2c(C#N)c3ccc(OC(F)F)cc3n2C2CCCCC2)nc1)C1CC1` [compound 471, 2-[3-cyano-1-cyclohexyl-6-(difluoromethoxy)-1H-indol-2-yl]-N-[(1S)-1-cyclopropylethyl]pyrimidine-5-sulfonamide] yielded a melting point of 150 to 152 °C. Also, the IC50 in data set [1] is < 500 nM.

These data come from patent publication US8735414B2 (priority 2009, dated 2014).
